In US20240368122A1, “JAK2 INHIBITORS AND METHODS OF USE THEREOF” (RELAY THERAPEUTICS, INC., priority 2021, published 2024):

Columns and labels:
[1] = target: T1, JAK2 JH2 WT (V536-D812) [W659A, W777A, F794H solubilizing mutations] (Homo sapiens, UniProt O60674, F794H/W659A/W777A); assay: Surface Plasmon Resonance (SPR) binding assay, JAK2 JH2 domain
T1 construct: **JAK2 JH2 WT (V536-D812) [W659A, W777A, F794H solubilizing mutations]; C-thrombin-avi-His6; thrombin cleavage site (C); His6 (C); purchased Biortus
T1 sequence (O60674 536-812 W659A/W777A/F794H): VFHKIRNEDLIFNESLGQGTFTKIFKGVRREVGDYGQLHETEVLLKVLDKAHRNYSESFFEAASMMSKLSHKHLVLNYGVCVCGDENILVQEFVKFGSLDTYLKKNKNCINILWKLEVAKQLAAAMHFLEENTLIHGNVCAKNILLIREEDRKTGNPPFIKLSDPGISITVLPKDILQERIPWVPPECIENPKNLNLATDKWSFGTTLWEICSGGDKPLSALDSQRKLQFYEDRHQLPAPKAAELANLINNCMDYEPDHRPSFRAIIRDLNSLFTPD
In short: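 Kinetics came from 1:1 fits of single-cycle runs at 20 °C: four 3-fold dilutions from 5 uM for JH1 or 500 nM for JH2, 60 s association, and 300 s or 1200 s dissociation respectively. Protein was freshly captured per compound in the presence of 10 uM stabilizer compound, with running buffer of pH 7.5 HEPES/NaCl/glycerol/DTT plus 2% DMSO.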

[2] = tested on: TF1 JAK2 V617F STAT5 reporter; assay: Cellular TF1 STAT5 assay (luciferase reporter), JAK2 V617F; type: cell-based; details: Homo sapiens, TF-1, TF1 cells, JAK2 V617F, read-out: Cell PD TF1 V617F STAT5 (IC50)
In short: (§1)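 Inhibition of JAK2 V617F-mediated STAT3/STAT5 signalling is measured by reporter luminescence in TF1 erythroleukemia cells treated overnight (18-20 h) with a 10-point compound series; DMSO serves as vehicle.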

[3] = tested on: TF1 JAK2 V617F STAT3 reporter; assay: Cellular TF1 STAT3 assay (luciferase reporter), JAK2 V617F; type: cell-based; details: Homo sapiens, TF-1, TF1 cells, JAK2 V617F, read-out: Cell PD-TF1 JAK2 V617F STAT3 (IC50)
In short: as §1

SMILES | Kd [1] [nM] | IC50 [2] [nM] | IC50 [3] [nM]
CNC(=O)c1nnc(NC(=O)C2CC2)cc1Nc1cccc(-c2ccc(C3CN(Cc4cnccc4C(F)F)C3)nc2)c1OC [Compound 291] | 10 to 50 | 500 to 5000 | 5000 to 100000
CNC(=O)c1nnc(NC(=O)C2CC2)cc1Nc1cccc(-c2cnn(C3CN(Cc4cccc(C5(C#N)CC5)n4)C3)c2)c1OC [Compound 292] | 0.01 to 10 | 50 to 500 | 50 to 500
CNC(=O)c1nnc(NC(=O)C2CC2)cc1Nc1cccc(-c2ccc(C3CN(Cc4cn(C)nc4C#N)C3)nc2)c1OC [Compound 293] | 50 to 500 | 5000 to 100000 | 500 to 5000
CNC(=O)c1nnc(NC(=O)C2CC2)cc1Nc1cccc(-c2cnn(C3CN(Cc4cccc([N+](=O)[O-])n4)C3)c2)c1OC [Compound 294] | 0.01 to 10 | 50 to 500 | 50 to 500
CNC(=O)c1nnc(NC(=O)C2CC2)cc1Nc1cccc(-c2cnn(C3CN(Cc4cc([N+](=O)[O-])ccn4)C3)c2)c1OC [Compound 295] | 0.01 to 10 | 50 to 500 | 50 to 500
CNC(=O)c1nnc(NC(=O)C2CC2)cc1Nc1ccc(C)c(-c2ccc(C(=O)N(C)Cc3cc(C(F)F)ccn3)nc2)c1OC [Compound 296] | 0.01 to 10 | 50 to 500 | 50 to 500
CNC(=O)c1nnc(NC(=O)C2CC2)cc1Nc1cccc(-c2ccc(C(=O)N(C)Cc3cn(C(F)F)nc3C)nc2)c1OC [Compound 297] | 0.01 to 10 | 50 to 500 | 50 to 500
CNC(=O)c1nnc(NC(=O)C2CC2)cc1Nc1cccc(-c2ccc(C(=O)N(C)Cc3cnn(C(F)F)c3C)nc2)c1OC [Compound 298] | 0.01 to 10 | 500 to 5000 | 500 to 5000
CNC(=O)c1nnc(NC(=O)C2CC2)cc1Nc1cccc(-c2cnn(C3CN(Cc4ncccc4C(=O)N(C)C)C3)c2)c1OC [Compound 299] | 0.01 to 10 | 500 to 5000 | 500 to 5000
CNC(=O)c1nnc(NC(=O)C2CC2)cc1Nc1cccc(-c2cnn(C3CN(Cc4cccc(C(C)(C)CO)n4)C3)c2)c1OC [Compound 300] | 0.01 to 10 | 50 to 500 | 50 to 500
CNC(=O)c1nnc(NC(=O)C2CC2)cc1Nc1cccc(-c2cnn(C3CN(Cc4ncccc4C(F)(F)F)C3)c2)c1OC [Compound 302] | 0.01 to 10 | 500 to 5000 | 500 to 5000
CNC(=O)c1nnc(NC(=O)C2CC2)cc1Nc1cccc(-c2cnn(C3CN(Cc4cccn5nccc45)C3)c2)c1OC [Compound 303] | 0.01 to 10 | 50 to 500 | 50 to 500
CNC(=O)c1nnc(NC(=O)C2CC2)cc1Nc1cccc(-c2cnn(C3CN(Cc4cccc(S(C)(=O)=O)n4)C3)c2)c1OC [Compound 304] | 0.01 to 10 | 50 to 500 | 50 to 500
CNC(=O)c1nnc(NC(=O)C2CC2)cc1Nc1cccc(-c2cnc(C3CN(Cc4cccc(C#N)n4)C3)nc2)c1OC [Compound 305] | 0.01 to 10 | 500 to 5000 | 500 to 5000
CNC(=O)c1nnc(NC(=O)C2CC2)cc1Nc1cccc(-c2cnn(C3CN(Cc4cccc(C(C)O)n4)C3)c2)c1OC (stereo not drawn) [Compound 306] | 0.01 to 10 | 50 to 500 | 50 to 500
CNC(=O)c1nnc(NC(=O)C2CC2)cc1Nc1cccc(-c2cnn(C3CN(Cc4cccc(C(C)=O)n4)C3)c2)c1OC [Compound 307] | 0.01 to 10 | 50 to 500 | 50 to 500
CNC(=O)c1nnc(NC(=O)C2CC2)cc1Nc1cccc(-c2cnn(C3CN(Cc4cccc(C(O)C(C)C)n4)C3)c2)c1OC (stereo not drawn) [Compound 308] | 10 to 50 | 50 to 500 | 50 to 500
CNC(=O)c1nnc(NC(=O)C2CC2)cc1Nc1cccc(-c2cnn(C3CN(Cc4cccc(C(=O)C(C)C)n4)C3)c2)c1OC [Compound 309] | 0.01 to 10 | 50 to 500 | 500 to 5000

SMILES | Kd [1] [nM] | IC50 [2] [nM] | IC50 [3] [nM]
CNC(=O)c1nnc(NC(=O)C2CC2)cc1Nc1cccc(-c2cnn([C@@H]3CN(Cc4cccc(C#N)n4)[C@H]3C)c2)c1OC [Compound 310] | 0.01 to 10 | 500 to 5000 | 500 to 5000
CNC(=O)c1nnc(NC(=O)C2CC2)cc1Nc1cccc(-c2cnn(C3CN(Cc4cccc(C(=O)N5CC(F)(F)C5)n4)C3)c2)c1OC [Compound 311] | 0.01 to 10 | 50 to 500 | 50 to 500
CNC(=O)c1nnc(NC(=O)C2CC2)cc1Nc1cccc(-c2cnn(C3CN(Cc4cccc(C(=O)O)n4)C3)c2)c1OC [Compound 312] | 0.01 to 10 | 5000 to 100000 | 5000 to 100000
CNC(=O)c1nnc(NC(=O)C2CC2)cc1Nc1cccc(-c2cnn(C3CN(Cc4cccc5nncn45)C3)c2)c1OC [Compound 313] | 10 to 50 | 500 to 5000 | 500 to 5000
CNC(=O)c1nnc(NC(=O)C2CC2)cc1Nc1ccc(C)c(-c2cnc(C(=O)N(C)Cc3ncc(COC)s3)c(F)c2)c1OC [Compound 314] | 0.01 to 10 | 50 to 500 | 500 to 5000
CNC(=O)c1nnc(NC(=O)C2CC2)cc1Nc1cccc(-c2ccc(C(=O)N(C)Cc3ncc(COC)s3)cc2)c1OC [Compound 316] | 0.01 to 10 | 500 to 5000 | 500 to 5000
CNC(=O)c1nnc(NC(=O)C2CC2)cc1Nc1ccc(C)c(-c2ccc(C(=O)N(C)Cc3ncc(COC)s3)nc2)c1OC [Compound 317] | 0.01 to 10 | 50 to 500 | 500 to 5000
CNC(=O)c1nnc(NC(=O)C2CC2)cc1Nc1cccc(-c2cnn([C@H]3CCN(Cc4cccc(C#N)n4)C3)c2)c1OC [Compound 319] | 0.01 to 10 | 50 to 500 | 50 to 500
CNC(=O)c1nnc(NC(=O)C2CC2)cc1Nc1ccc(C)c(-c2ccc(C3CN(Cc4cccc(C#N)n4)C3)nc2)c1OC [Compound 320] | 0.01 to 10 | 500 to 5000 | 500 to 5000
CNC(=O)c1nnc(NC(=O)C2CC2)cc1Nc1ccc(C)c(-c2ccc(C3CN(Cc4cc(C#N)ccn4)C3)nc2)c1OC [Compound 321] | 10 to 50 | 5000 to 100000 | 5000 to 100000
CNC(=O)c1nnc(NC(=O)C2CC2)cc1Nc1ccc(C)c(-c2ccc(C3CN(Cc4ccccn4)C3)nc2)c1OC [Compound 322] | 10 to 50 | 5000 to 100000 | 5000 to 100000
CNC(=O)c1nnc(NC(=O)C2CC2)cc1Nc1cccc(-c2cnn(C3CN(Cc4cccc(C=O)n4)C3)c2)c1OC [Compound 324] | 0.01 to 10 | 50 to 500 | 50 to 500
CNC(=O)c1nnc(NC(=O)C2CC2)cc1Nc1cccc(-c2cnc(C3CN(Cc4ccccn4)C3)nc2)c1OC [Compound 325] | 0.01 to 10 | 5000 to 100000 | 5000 to 100000
CNC(=O)c1nnc(NC(=O)C2CC2)cc1Nc1cccc(-c2cnc(C3CN(Cc4cccn(C)c4=O)C3)nc2)c1OC [Compound 326] | 10 to 50 | 5000 to 100000 | 5000 to 100000
CNC(=O)c1nnc(NC(=O)C2CC2)cc1Nc1cccc(-c2cnc(C3CN(Cc4cccc5ncnn45)C3)nc2)c1OC [Compound 327] | 0.01 to 10 | 5000 to 100000 | 5000 to 100000
CNC(=O)c1nnc(NC(=O)C2CC2)cc1Nc1cccc(-c2ccc(C3CN(Cc4cc(S(C)(=O)=O)ccn4)C3)nc2)c1OC [Compound 330] | 0.01 to 10 | 500 to 5000 | 500 to 5000
CNC(=O)c1nnc(NC(=O)C2CC2)cc1Nc1cccc(-c2ccn(C3CN(Cc4cccc(C(F)F)n4)C3)n2)c1OC [Compound 331] | 0.01 to 10 | 500 to 5000 | 500 to 5000
